# According to ChEMBL document CHEMBL5055669, “Development of Potent and Selective Agonists for Complement C5a Receptor 1 with In Vivo Activity” (J Med Chem, 2021):
# pEC50: −log10 of the molar value. Calls of active or inactive are those of the source. The calls are words filed in the database; no cut-off is given here. Square brackets hold non-standard residues; d marks the D form. Peptide text beside a SMILES is read from it. Nva = CCC[C@H](N)C(=O)O; Abu = CC[C@H](N)C(=O)O
# Key:
# [1] = biological target: T1, C3a anaphylatoxin chemotactic receptor (Homo sapiens, UniProt Q16581); assay: Agonist activity at human C3aR expressed in CHO cells assessed as induction of ERK1/2 phosphorylation at Thr202/Tyr204 residues incubated for 10 mins by AlphaLISA assay; format: functional, cell-based; settings: for EC50: read-out: pEC50 (converted); for pEC50: read-out: EC50
# T1 sequence (Q16581 whole entry): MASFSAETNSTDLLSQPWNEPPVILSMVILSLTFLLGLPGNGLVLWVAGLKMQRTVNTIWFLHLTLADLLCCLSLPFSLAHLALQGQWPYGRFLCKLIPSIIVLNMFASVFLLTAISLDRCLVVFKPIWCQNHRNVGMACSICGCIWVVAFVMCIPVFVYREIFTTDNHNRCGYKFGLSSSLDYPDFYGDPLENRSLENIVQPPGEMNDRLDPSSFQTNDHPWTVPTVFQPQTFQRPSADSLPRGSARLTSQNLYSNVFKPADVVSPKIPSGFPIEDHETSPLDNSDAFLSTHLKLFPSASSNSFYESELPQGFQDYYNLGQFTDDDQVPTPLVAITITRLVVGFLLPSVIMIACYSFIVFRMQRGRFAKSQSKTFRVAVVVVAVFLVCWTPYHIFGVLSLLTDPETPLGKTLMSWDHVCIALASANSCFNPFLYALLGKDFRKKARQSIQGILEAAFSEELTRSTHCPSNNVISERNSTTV
# [2] = biological target: T2, C5a anaphylatoxin chemotactic receptor 1 (Homo sapiens, UniProt P21730); assay: Agonist activity at human C5aR1 expressed in CHO cells assessed as induction of ERK1/2 phosphorylation at Thr202/Tyr204 residues incubated for 10 mins by AlphaLISA assay; format: functional, cell-based
# T2 sequence (P21730 whole entry): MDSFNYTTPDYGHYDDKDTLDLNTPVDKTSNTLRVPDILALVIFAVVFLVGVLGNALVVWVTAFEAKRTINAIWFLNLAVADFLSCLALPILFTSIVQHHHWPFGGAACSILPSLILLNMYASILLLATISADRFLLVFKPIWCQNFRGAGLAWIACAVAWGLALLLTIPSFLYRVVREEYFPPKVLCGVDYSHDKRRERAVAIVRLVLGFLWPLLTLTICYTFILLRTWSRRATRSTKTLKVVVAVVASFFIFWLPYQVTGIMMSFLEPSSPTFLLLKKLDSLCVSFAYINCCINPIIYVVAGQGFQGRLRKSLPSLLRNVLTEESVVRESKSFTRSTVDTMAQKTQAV
# Homo sapiens = species: Homo sapiens; assay: Selectivity ratio of EC50 for agonist activity at human C3aR expressed in CHO cells to EC50 for agonist activity at human C5aR1 expressed in CHO cells; format: cell-based
# [3] = biological target: T3, C5a anaphylatoxin chemotactic receptor 1 (Mus musculus, UniProt P30993); assay: Agonist activity at C5aR1 in mouse RAW264.7 cells assessed as induction of ERK1/2 phosphorylation at Thr202/Tyr204 residues incubated for 10 mins by AlphaLISA assay; format: functional, cell-based
# T3 sequence (P30993 whole entry): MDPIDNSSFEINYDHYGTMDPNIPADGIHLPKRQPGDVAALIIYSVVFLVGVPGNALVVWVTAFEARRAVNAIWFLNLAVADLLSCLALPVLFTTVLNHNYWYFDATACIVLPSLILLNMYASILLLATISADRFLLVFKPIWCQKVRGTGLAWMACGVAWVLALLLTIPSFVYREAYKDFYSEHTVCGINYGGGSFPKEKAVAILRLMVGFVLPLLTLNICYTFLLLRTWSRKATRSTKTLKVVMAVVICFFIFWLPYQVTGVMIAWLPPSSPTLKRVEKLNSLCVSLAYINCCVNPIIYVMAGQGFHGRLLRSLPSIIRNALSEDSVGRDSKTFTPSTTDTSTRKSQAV
# [4] = biological target: T4, C5a anaphylatoxin chemotactic receptor 1 (Mus musculus) (UniProt P30993); assay: Agonist activity at C5aR1 in mouse RAW264.7 cells assessed as induction of ERK1/2 phosphorylation at Thr202/Tyr204 residues at up to 100 uM incubated for 10 mins in presence of JPE1375 by AlphaLISA assay; format: functional, cell-based
# T4 sequence (whole entry): T3 sequence (P30993 whole entry)
# MDM [5] = assay: Antiinflammatory activity in human MDM cells assessed as suppression of LPS-induced IL-6 production at 1 uM measured after 24 hrs by ELISA; format: functional, cell-based
# MDM [6] = assay: Antiinflammatory activity in human MDM cells assessed as suppression of LPS-induced TNFalpha production at 1 uM measured after 24 hrs by ELISA; format: functional, cell-based
# [7] = Ratio of EC50 for agonist activity at C5aR1 in mouse RAW264.7 cells to EC50 for agonist activity at human C5aR1 expressed in CHO cells; format: cell-based
# Mus musculus = assay: Antiinflammatory activity in C57BL/6J mouse assessed as polymorphonuclear leucocyte mobilization at 50 ug/kg, iv measured after 30 mins by hemacolor-staining based microscopic analysis relative to control; format: functional; settings: dose 50 µg/kg, 0.5 h
# [8] = biological target: T4, C5a anaphylatoxin chemotactic receptor 1 (Mus musculus); assay: Agonist activity at C5aR1 in mouse RAW264.7 cells assessed as induction of ERK1/2 phosphorylation at Thr202/Tyr204 residues at up to 100 uM incubated for 10 mins by AlphaLISA assay; format: functional, cell-based
SMILES,EC50 [1] [nM],pEC50 [2],Ratio EC50 (Homo sapiens),other results
CC(C)C[C@H](NC(=O)[C@H](C)NC(=O)[C@H](CC(C)C)NC(=O)[C@@H]1CCCN1C(=O)[C@H](CCCCN)NC(=O)[C@H](C)N)C(=O)N[C@H](C)C(=O)N[C@@H](CCCNC(=N)N)C(=O)O,532,5.84,0.4,
CC(C)C[C@H](NC(=O)[C@@H]1CCCN1C(=O)[C@H](CCCCN)NC(=O)[C@@H](N)Cc1ccccc1)C(=O)N[C@@H](C)C(=O)N[C@@H](C)C(=O)N[C@@H](C)C(=O)N[C@@H](CCCNC(=N)N)C(=O)O,17300,,,
CC(C)C[C@H](NC(=O)[C@@H]1CCCN1C(=O)[C@H](CC(C)C)NC(=O)[C@@H]1CCCN1C(=O)[C@H](CCCCN)NC(=O)[C@@H](N)Cc1ccccc1)C(=O)N[C@H](C)C(=O)N[C@@H](CCCNC(=N)N)C(=O)O (H-FKPLPL[dA]R-OH),129,,,
CC(=O)N[C@@H](Cc1ccccc1)C(=O)N[C@@H](CCCCN)C(=O)N1CCC[C@H]1C(=O)N[C@@H](CC(C)C)C(=O)N[C@@H](C)C(=O)N[C@@H](Cc1ccccc1)C(=O)N[C@H](C)C(=O)N[C@@H](CCCNC(=N)N)C(=O)O (Ac-FKPLAF[dA]R-OH),3760,7.13,51.5,
CC(C)C[C@H](NC(=O)[C@@H]1CCCN1C(=O)[C@H](C)NC(=O)[C@@H]1CCCN1C(=O)[C@H](CCCCN)NC(=O)[C@@H](N)Cc1ccccc1)C(=O)N[C@H](C)C(=O)N[C@@H](CCCNC(=N)N)C(=O)O,11,7.35,0.25,
CC(=O)N[C@@H](Cc1ccccc1)C(=O)N[C@H]1CCCCNC(=O)[C@H](CCCNC(=N)N)NC(=O)[C@@H](C)NC(=O)[C@H](C)NC(=O)[C@H](C)NC(=O)[C@H](CC(C)C)NC(=O)[C@@H]2CCCN2C1=O,,,,pEC50 [1]: < 4.00
CC(C)C[C@H](NC(=O)[C@@H]1CCCN1C(=O)[C@H](CC(C)C)NC(=O)[C@@H]1CCCN1C(=O)[C@H](CCCCN)NC(=O)[C@H](C)N)C(=O)N[C@H](C)C(=O)N[C@@H](CCCNC(=N)N)C(=O)O,631,4.72,0.033,
CCC[C@H](NC(=O)[C@H](C)NC(=O)[C@H](CC(C)C)NC(=O)[C@@H]1CCCN1C(=O)[C@H](CCCCN)NC(=O)[C@H](Cc1ccccc1)NC(C)=O)C(=O)N[C@@H](C)C(=O)N[C@@H](CCCNC(=N)N)C(=O)O (Ac-FKPLA[Nva]AR-OH),752,,,
CC(=O)N[C@@H](Cc1ccccc1)C(=O)N[C@@H](CCCCN)C(=O)N1CCC[C@H]1C(=O)N[C@@H](CC(C)C)C(=O)N[C@@H](C)C(=O)N[C@@H](C)C(=O)N[C@H](C)C(=O)N[C@@H](CCCNC(=N)N)C(=O)O (Ac-FKPLAA[dA]R-OH),,,,pEC50 [3]: 4.64; Activity [4]: inactive
CC(C)C[C@H](NC(=O)[C@H](C)NC(=O)[C@@H](NC(=O)[C@@H]1CCCN1C(=O)[C@H](CCCCN)NC(=O)[C@@H](N)Cc1ccccc1)[C@@H](C)O)C(=O)N[C@H](C)C(=O)N[C@@H](CCCNC(=N)N)C(=O)O,37.1,7.98,3.7,
CC(C)C[C@H](NC(=O)[C@@H]1CCCN1C(=O)[C@H](CC(C)C)NC(=O)[C@@H]1CCCN1C(=O)[C@H](C)NC(=O)[C@@H](N)Cc1ccccc1)C(=O)N[C@H](C)C(=O)N[C@@H](CCCNC(=N)N)C(=O)O,282,6.15,0.4,
C[C@H](NC(=O)[C@H](C)NC(=O)[C@@H](NC(=O)[C@@H]1CCCN1C(=O)[C@H](CCCCN)NC(=O)[C@@H](N)Cc1ccccc1)[C@@H](C)O)C(=O)N[C@H](C)C(=O)N[C@@H](CCCNC(=N)N)C(=O)O,7010,6.05,7.8,
CC(C)C[C@H](NC(=O)[C@@H]1CCCN1C(=O)[C@H](CCCCN)NC(=O)[C@@H](N)Cc1ccccc1)C(=O)N1CCC[C@H]1C(=O)N[C@@H](C)C(=O)N[C@H](C)C(=O)N[C@@H](CCCNC(=N)N)C(=O)O,54800,,,
CC(C)C[C@H](NC(=O)[C@H](C)NC(=O)[C@@H](NC(=O)[C@@H]1CCCN1C(=O)[C@H](CCCNC(=N)N)NC(=O)[C@@H](N)Cc1ccccc1)[C@@H](C)O)C(=O)N[C@H](C)C(=O)N[C@@H](CCCNC(=N)N)C(=O)O,9.04,7.61,0.4,
CC[C@@H](C)[C@@H](NC(=O)[C@H](C)NC(=O)[C@H](CC(C)C)NC(=O)[C@@H]1CCCN1C(=O)[C@H](CCCCN)NC(=O)[C@H](Cc1ccccc1)NC(C)=O)C(=O)N[C@@H](C)C(=O)N[C@@H](CCCNC(=N)N)C(=O)O,429,8.81,214,
CC(C)C[C@H](NC(=O)[C@@H]1CCCN1C(=O)[C@H](CC(C)C)NC(=O)[C@H](C)NC(=O)[C@H](CCCCN)NC(=O)[C@@H](N)Cc1ccccc1)C(=O)N[C@H](C)C(=O)N[C@@H](CCCNC(=N)N)C(=O)O,61.9,7.71,3.26,
CC[C@H](NC(=O)[C@H](C)NC(=O)[C@H](CC(C)C)NC(=O)[C@@H]1CCCN1C(=O)[C@H](CCCCN)NC(=O)[C@H](Cc1ccccc1)NC(C)=O)C(=O)N[C@H](C)C(=O)N[C@@H](CCCNC(=N)N)C(=O)O (Ac-FKPLA[Abu][dA]R-OH),14500,8.24,2420,pEC50 [3]: 5.64; Activity [4]: inactive; Activity (MDM [5]): Active; Activity (MDM [6]): Active; Ratio EC50 [7]: 1000; Activity (Mus musculus): 41%
CC(C)C[C@H](NC(=O)[C@@H]1CCCN1C(=O)[C@H](CCCCN)NC(=O)[C@@H](N)Cc1ccccc1)C(=O)N[C@@H](C)C(=O)N[C@@H](C)C(=O)N[C@H](C)C(=O)N[C@@H](CCCNC(=N)N)C(=O)O,131000,,,Activity [8]: inactive
CC(=O)N[C@@H](Cc1ccccc1)C(=O)N[C@@H](CCCCN)C(=O)N1CCC[C@H]1C(=O)N[C@@H](CC(C)C)C(=O)N[C@@H](C)C(=O)N[C@H](C(=O)N[C@H](C)C(=O)N[C@@H](CCCNC(=N)N)C(=O)O)[C@@H](C)O,69800,7.47,2050,
CC(C)C[C@H](NC(=O)[C@@H]1CCCN1C(=O)[C@H](CCCCN)NC(=O)[C@@H](N)Cc1ccccc1)C(=O)N[C@@H](C)C(=O)N[C@@H](C)C(=O)N[C@H](C)C(=O)N[C@@H](CCCNC(=N)N)C(N)=O,,,,pEC50 [1]: < 4.00
CC(C)C[C@H](NC(=O)[C@H](C)NC(=O)[C@H](CC(C)C)NC(=O)[C@@H]1CCCN1C(=O)[C@H](CCCCN)NC(=O)[C@@H](N)Cc1ccccc1)C(=O)N[C@H](C)C(=O)N[C@@H](CCCNC(=N)N)C(=O)O,435,8.36,109,
